{"source": "patent US20220184071A1", "about": "“GEPOTIDACIN FOR USE IN THE TREATMENT OF BACTERIAL URINARY TRACT INFECTIONS” (GlaxoSmithKline Intellectual Property Development Limited, priority 2019, published 2022)", "key": {"[1]": {"assay": "Phase IIa safety and tolerability", "format": "in vivo, human", "protocol": "(§1) This phase IIa single center study evaluated the safety, tolerability, pharmacokinetics, and efficacy of oral gepotidacin 1500 mg BID for 5 days in female subjects with acute cystitis. Clean catch mid-stream urine specimens were obtained for quantitative culture by standard methods. Urine samples were taken from all participants pre-treatment (baseline) and at all post-baseline visits. All urine samples were sent to a central laboratory (PPD Global Clinical Laboratories, Highland Heights, Ky., USA) for Gram stain, quantitative culture, pathogen identification and susceptibility testing. See FIG. 1 for participant disposition and study outline.\nSerial blood and urine PK sampling were performed for the first dose of study treatment on Day 1 and for the time-matched dose on Day 4. Participants took all doses of gepotidacin with food and remained in the clinic to complete a total of 10 doses. Participants were instructed to return for the TOC (Day 10 to 13) and Follow-up (Day 28±3) Visits."}, "[2]": {"assay": "MIC by CLSI broth microdilution, Example 1 Method 1, gram-negative aerobic organisms", "format": "cell-based", "details": "at least one strain of every organism listed; salt of gepotidacin (such as mesylate salt)", "protocol": "Antimicrobial activity was determined by broth microdilution using the CLSI recommended procedure."}, "C. koseri": {"test_system": "C. koseri", "assay": "Phase IIa baseline uropathogen susceptibility testing (CLSI broth microdilution)", "format": "cell-based, Citrobacter koseri", "details": "Citrobacter koseri; Participant 1; read-out: GEP MIC", "protocol": "as §1\nSusceptibility testing by CLSI broth microdilution and gradient diffusion (fosfomycin only) was conducted (CLSI, 2015, Methods for dilution antimicrobial susceptibility tests for bacteria that grow aerobically; approved standard-tenth edition; and CLSI, 2018. Performance Standards for Antimicrobial Susceptibility Testing; Twenty-seventh Informational Supplement M100-S28). Inclusion in the microbiological intent-to-treat population (micro-ITT), required growth of a qualifying baseline uropathogen (≥10^5 CFU/mL). See FIG. 2 for the baseline algorithm."}, "S. epidermidis": {"test_system": "S. epidermidis", "assay": "MIC by CLSI broth microdilution, Example 5 second study (skin and soft tissue isolates)", "format": "cell-based", "details": "Staphylococcus epidermidis; 13 isolates, 2013-2014", "source_text": "A second study tested gepotidacin by CLSI broth microdilution against bacterial isolates collected from patients with acute bacterial skin and soft tissue infections between 2013-2014. Amoxicillin/clavulanic acid, linezolid, fusidic acid, ceftriaxone, ceftaroline, vancomycin, penicillin, quinupristin/dalfopristin, erythromycin, clindamycin, meropenem, tetracycline, chloramphenicol, flucloxacillin, telavancin, daptomycin, trimethoprim/sulfamethoxazole, gentamicin, levofloxacin, tigecycline and cefuroxime were included as comparators. MICs were determined by broth microdilution according to CLSI methods."}, "[3]": {"test_system": "S. lugdenensis, S. agalactiae, Streptococcus group G and Streptococcus group F", "assay": "MIC by CLSI broth microdilution, Example 5 second study", "format": "cell-based", "details": "at least one strain of every organism listed", "source_text": "A second study tested gepotidacin by CLSI broth microdilution against bacterial isolates collected from patients with acute bacterial skin and soft tissue infections between 2013-2014.\nAmoxicillin/clavulanic acid, linezolid, fusidic acid, ceftriaxone, ceftaroline, vancomycin, penicillin, quinupristin/dalfopristin, erythromycin, clindamycin, meropenem, tetracycline, chloramphenicol, flucloxacillin, telavancin, daptomycin, trimethoprim/sulfamethoxazole, gentamicin, levofloxacin, tigecycline and cefuroxime were included as comparators. MICs were determined by broth microdilution according to CLSI methods.\nIn addition, MICs were determined by broth microdilution according CLSI methods and all the comparators from the list above were evaluated against gram-positive aerobe organisms selected from S. lugdenensis, S. agalactiae, Streptococcus group G and Streptococcus group F."}, "Providencia stuartii": {"test_system": "Providencia stuartii", "assay": "MIC by CLSI broth microdilution, isolates from UTI patients (Example 7)", "format": "cell-based", "details": "n=1", "protocol": "Gepotidacin was tested against the following organisms obtained from UTI patients, in serial two-fold dilutions. The minimum inhibitory concentration (MIC) was determined by broth microdilution according to CLSI methods."}, "viridans streptococci": {"test_system": "viridans streptococci", "assay": "MIC by CLSI broth microdilution, Example 5 Method 1", "format": "cell-based", "details": "105 isolates", "protocol": "(§2) Gepotidacin was tested against 101 coagulase-negative staphylococci and 105 viridans streptococci in serial two-fold dilutions and the minimum inhibitory concentration (MIC) was determined as the lowest concentration of the compound that inhibited visible growth. All of the clinical isolates were collected in 2009-2012 from patient infections from North America, Europe, Latin America and Asia-Pacific medical centers and were mainly obtained from patients with documented nosocomial and community-acquired respiratory tract infections, bloodstream infections and skin and skin structure infections. Ceftriaxone, meropenem, penicillin, levofloxacin, moxifloxacin and linezolid were included as comparators when testing the viridans streptococci isolates. Oxacillin, levofloxacin, moxifloxacin and linezolid, were included as comparators when testing the coagulase-negative staphylococci isolates. MICs were determined by broth microdilution according to CLSI methods."}, "[4]": {"test_system": "coagulase-negative staphylococci", "assay": "MIC by CLSI broth microdilution, Example 5 Method 1", "format": "cell-based", "protocol": "as §2"}, "[5]": {"test_system": "All Qualifying Uropathogens", "assay": "Phase IIa microbiological response (micro-ITT population)", "format": "in vivo, human", "details": "for Microbiological Failure, n (%) (95% Confidence Interval): n 8"}, "Bilophila wadsworthia": {"test_system": "Bilophila wadsworthia", "assay": "MIC by CLSI agar dilution, Example 6 Method 1", "format": "cell-based", "details": "26 isolates, read-out: Gepotidacin MIC90", "protocol": "(§3) Antimicrobial activity was determined by agar dilution using the Clinical and Laboratory Standards Institute (CLSI) recommended procedure.\n(§4) The compounds were tested in serial two-fold dilutions and the minimum inhibitory concentration (MIC) was determined as the lowest concentration of the compound that inhibited visible growth. Gepotidacin was tested against 333 gram-negative anaerobic and 203 gram-positive anaerobic isolates collected from clinical samples in North America and Europe from 2000 to 2017; the majority collected from 2013 to 2016.\n(§5) Ceftriaxone, clindamycin, imipenem, metronidazole, moxifloxacin and piperacillin/tazobactam were included as comparators."}, "[6]": {"test_system": "gram-positive anaerobe organisms combined", "assay": "MIC by CLSI agar dilution, Example 6 Method 1", "format": "cell-based", "details": "gram-positive anaerobes combined; read-out: overall MIC90", "protocol": "as §3, §4, §5"}, "[7]": {"test_system": "all the gram-negative anaerobe organisms combined", "assay": "MIC by CLSI agar dilution, Example 6 Method 1", "format": "cell-based", "details": "all gram-negative anaerobes combined; read-out: overall MIC90", "protocol": "as §3, §4, §5"}}, "note": "Entries after “also recorded” stand apart in the source; their conditions may differ.", "data": [{"smiles": "O=c1ccc2ncc(=O)n3c2n1C[C@H]3CN1CCC(NCc2cc3c(cn2)OCCC3)CC1", "note": "[gepotidacin, (2R)-2-({4-[(3,4-dihydro-2H-pyrano[2,3-c]pyridin-6-ylmethyl)amino]-1-piperidinyl}methyl)-1,2-dihydro-3H,8H-2a,5,8a-triazaacenaphthylene-3,8-dione]", "values": [{"measurement": "Back pain, n (%)", "setting": "[1]; N = 22", "value": "2 (9)"}, {"measurement": "Chest discomfort, n (%)", "setting": "[1]; N = 22", "value": "2 (9)"}, {"measurement": "Gastrointestinal disorders, n (%)", "setting": "[1]; N = 22", "value": "21 (95)"}, {"measurement": "General disorders and administration site conditions, n (%)", "setting": "[1]; N = 22", "value": "2 (9)"}, {"measurement": "Headache, n (%)", "setting": "[1]; N = 22", "value": "5 (23)"}, {"measurement": "Infections and infestations, n (%)", "setting": "[1]; N = 22", "value": "6 (27)"}, {"measurement": "Nervous system disorders, n (%)", "setting": "[1]; N = 22", "value": "5 (23)"}, {"measurement": "Viral upper respiratory tract infection, n (%)", "setting": "[1]; N = 22", "value": "2 (9)"}, {"measurement": "Vomiting, n (%)", "setting": "[1]; N = 22", "value": "5 (23)"}, {"measurement": "Vulvovaginal mycotic infection, n (%)", "setting": "[1]; N = 22", "value": "2 (9)"}, {"measurement": "Any adverse event, n (%)", "setting": "[1]; N = 22, 1500 mg BID 5 days", "value": "21 (95)"}, {"measurement": "Musculoskeletal and connective tissue disorders, n (%)", "setting": "[1]; female, human, in vivo, 5 days", "value": "3 (14)"}, {"measurement": "safety laboratory parameters, vital signs, ECG", "setting": "[1]; in vivo", "value": "no clinically relevant trends; also recorded: no clinically significant changes"}, {"measurement": "withdrawals or study treatment discontinuations due to AEs", "setting": "[1]; in vivo", "value": "No withdrawal due to AE; also recorded: no withdrawals or study treatment discontinuations due to AEs"}, {"measurement": "Episodes of vomiting considered drug related", "setting": "[1]; mild or moderate, not treatment limiting", "value": 4, "unit": "participants"}, {"measurement": "intensity of GI AEs", "setting": "[1]; onset at day 1, improving upon repeat dosing", "value": "mild or moderate"}, {"measurement": "tolerability", "setting": "[1]; oral 1500 mg BID for 5 days", "value": "tolerated with no dose-limiting AEs"}, {"measurement": "MIC", "setting": "[2]", "value": "≤ 8", "unit": "mg/L"}, {"measurement": "MIC", "setting": "C. koseri", "value": 0.5, "unit": "mg/L"}, {"measurement": "MIC90", "setting": "S. epidermidis", "value": 0.25, "unit": "mg/L"}, {"measurement": "MIC", "setting": "[3]", "value": "≤ 2", "unit": "mg/L"}, {"measurement": "MIC", "setting": "Providencia stuartii", "value": 32, "unit": "mg/L"}, {"measurement": "MIC90", "setting": "viridans streptococci", "value": 0.5, "unit": "mg/L"}, {"measurement": "MIC90", "setting": "[4]; 101 isolates", "value": 0.5, "unit": "mg/L"}, {"measurement": "MIC90 fold lower than the comparators tested", "setting": "[4]; coagulase-negative staphylococci and viridans streptococci, except meropenem and moxifloxacin against viridans group streptococci", "value": "2 to 64", "unit": "fold"}, {"measurement": "Microbiological Failure, n (%) (95% Confidence Interval)", "setting": "[5]; Follow-up Visit", "value": "2 (25) (3-65)"}, {"measurement": "Microbiological Failure, n (%) (95% Confidence Interval)", "setting": "[5]; TOC Visit", "value": "1 (13) (<1-53)"}, {"measurement": "reduction in susceptibility to gepotidacin (≥4-fold increase in MIC)", "setting": "[5]; baseline uropathogen vs same uropathogen at subsequent visits", "value": "no evidence of reduction in susceptibility; also recorded: No participants developed post-treatment uropathogens with reduced susceptibility"}, {"measurement": "MIC90", "setting": "Bilophila wadsworthia", "value": 0.5, "unit": "mg/L"}, {"measurement": "MIC90", "setting": "[6]", "value": 2, "unit": "mg/L"}, {"measurement": "MIC90", "setting": "[7]", "value": 4, "unit": "mg/L"}]}]}
